Experimental findings from ChEMBL document CHEMBL4295262, “Evaluation of the utility of stem-cell derived cardiomyocytes for drug proarrhythmic potential” (2019) are described below.

Common to all, as to conditions: human, ipsc-cm
The nature of data set [1]: (§1) Electrical activity assay on cell lines treated with a given drug. DMSO was used as a vehicle and a control, unblinded dofetilide was used as a control. It is filed as ADME, cell-based. On the set-up: FPDc: unit not given here.
A short description of data set [2]: as §1.
Data set [3] is described as follows: as §1. The source holds these as a separate data set.
Data set [4] is described as follows: as §1. It is filed as ADME, cell-based.
The nature of data set [5]: as §1. The data set is classed as ADME, cell-based. The arrangement: FPDc: unit not given here. The source holds these as a separate data set.
A short description of data set [6]: as §1. The arrangement: APDc: unit not given here. It is filed as cell-based.
[7] abbreviates: 0.001 µM, concentration (um) 0.001 uM.
Where [8] appears, read: 0.01 µM, concentration (um) 0.01 uM.
Setting [9] is: 0.1 µM, concentration (um) 0.1 uM.
Where [10] appears, read: 0.003169 µM, concentration (um) 0.00316912 uM.
Setting [11] is: 0.01001 µM, concentration (um) 0.0100144 uM.
Where [12] appears, read: 0.03165 µM, concentration (um) 0.0316456 uM.
[13] abbreviates: 0.09507 µM, concentration (um) 0.0950736 uM.
[14] abbreviates: 0.3004 µM, concentration (um) 0.300433 uM.
Setting [15] is: 0.9494 µM, concentration (um) 0.949367 uM.
[16] abbreviates: 10 µM, concentration (um) 10 uM.
Where [17] appears, read: 100 µM, concentration (um) 100 uM.

For `CCOC(=O)N1CCC(=C2c3ccc(Cl)cc3CCc3cccnc32)CC1` [LORATADINE], the FPDc in data set [1] (0.0009507 µM, concentration (um) 0.000950736 uM) is given as 0.02441; in data set [1] (0.003004 µM, concentration (um) 0.00300433 uM), 0.02167; in data set [1] (0.009494 µM, concentration (um) 0.00949367 uM), 0.02089; in data set [1] (0.03 µM, concentration (um) 0.03 uM), 0.02123; in data set [2] (0.0009507 µM), 1 Values Out Of 1 Were Excluded Due To Quiescence Or 0 Fpdc; in data set [2] (0.003004 µM), 1 Values Out Of 1 Were Excluded Due To Quiescence Or 0 Fpdc. The FPDc in data set [2] (0.009494 µM) was 1 Values Out Of 1 Were Excluded Due To Quiescence Or 0 Fpdc; in data set [2] (0.03 µM), 1 Values Out Of 1 Were Excluded Due To Quiescence Or 0 Fpdc; in data set [3] (0.0009507 µM), 54.17; in data set [3] (0.003004 µM) it was 54.08; in data set [3] (0.009494 µM) it was 55.38; in data set [3] (0.03 µM) it was 55.57. For the same compound, the FPD measurement in data set [2] (0.0009507 µM) is listed as 1 Values Out Of 1 Were Excluded Due To Quiescence Or 0 Fpdc; in data set [2] (0.003004 µM), 1 Values Out Of 1 Were Excluded Due To Quiescence Or 0 Fpdc; in data set [2] (0.009494 µM) it was 1 Values Out Of 1 Were Excluded Due To Quiescence Or 0 Fpdc; in data set [2] (0.03 µM), 1 Values Out Of 1 Were Excluded Due To Quiescence Or 0 Fpdc; in data set [3] (0.0009507 µM), 54.17 FPDc; in data set [3] (0.003004 µM) it was 54.08 FPDc. Besides, the FPD measurement in data set [3] (0.009494 µM) was found to be 55.38 FPDc; in data set [3] (0.03 µM), 55.57 FPDc.
Regarding `COc1ccc(CCN(C)CCCC(C#N)(c2ccc(OC)c(OC)c2)C(C)C)cc1OC` (centres undefined) [VERAPAMIL], the FPDc is listed as 0.02679 in data set [1] (setting [7]); 0.03865 in data set [1] (setting [8]); “More Than Half The Wells Had A Quiescence Event Or Fpdc Readings Of 0” in data set [1] (setting [9]); “More Than Half The Wells Had A Quiescence Event Or Fpdc Readings Of 0” in data set [1] (1 µM, concentration (um) 1 uM); 6 Values Out Of 6 Were Excluded Due To Quiescence Or 0 Fpdc in data set [4] (setting [7]); 6 Values Out Of 6 Were Excluded Due To Quiescence Or 0 Fpdc in data set [4] (setting [8]). The FPDc is reported as 6 Values Out Of 6 Were Excluded Due To Quiescence Or 0 Fpdc in data set [4] (setting [9]); 6 Values Out Of 6 Were Excluded Due To Quiescence Or 0 Fpdc in data set [4] (1 µM, concentration (um) 1 uM); 1 Values Out Of 1 Were Excluded Due To Quiescence Or 0 Fpdc in data set [2] (0.001 µM); 1 Values Out Of 1 Were Excluded Due To Quiescence Or 0 Fpdc in data set [2] (0.01 µM); 1 Values Out Of 1 Were Excluded Due To Quiescence Or 0 Fpdc in data set [2] (0.1 µM); 1 Values Out Of 1 Were Excluded Due To Quiescence Or 0 Fpdc in data set [2] (1 µM). The FPDc in data set [5] (setting [7]) is on record as 48.96; in data set [5] (setting [8]), 54.23; in data set [5] (setting [9]) it was 56.48; in data set [5] (1 µM, concentration (um) 1 uM), 50.52. Moreover, the FPD measurement result in data set [1] (setting [9]) was “More Than Half The Wells Had A Quiescence Event Or Fpdc Readings Of 0”; in data set [1] (1 µM, concentration (um) 1 uM), “More Than Half The Wells Had A Quiescence Event Or Fpdc Readings Of 0”; in data set [4] (setting [7]) it was 52.61 FPDc; in data set [4] (setting [8]), 58.45 FPDc; in data set [2] (0.001 µM), 1 Values Out Of 1 Were Excluded Due To Quiescence Or 0 Fpdc; in data set [2] (0.01 µM) it was 1 Values Out Of 1 Were Excluded Due To Quiescence Or 0 Fpdc. The FPD measurement in data set [2] (0.1 µM) is reported as 1 Values Out Of 1 Were Excluded Due To Quiescence Or 0 Fpdc; in data set [2] (1 µM) it was 1 Values Out Of 1 Were Excluded Due To Quiescence Or 0 Fpdc; in data set [5] (setting [7]), 5 Values Out Of 5 Were Excluded Due To Quiescence Or 0 Apdc; in data set [5] (setting [8]), 5 Values Out Of 5 Were Excluded Due To Quiescence Or 0 Apdc; in data set [5] (setting [9]), 5 Values Out Of 5 Were Excluded Due To Quiescence Or 0 Apdc; in data set [5] (1 µM, concentration (um) 1 uM), 5 Values Out Of 5 Were Excluded Due To Quiescence Or 0 Apdc.
As to `COc1cc(N)c(Cl)cc1C(=O)NC1CCN(CCCOc2ccc(F)cc2)CC1OC` (centres undefined) [CISAPRIDE], the FPDc in data set [1] (setting [10]) is reported as 0.04125; in data set [1] (setting [11]) it was 0.03941; in data set [1] (setting [12]), 0.04671; in data set [1] (setting [9]), 0.04762; in data set [2] (0.003169 µM) it was 1 Values Out Of 1 Were Excluded Due To Quiescence Or 0 Fpdc; in data set [2] (0.01001 µM), 1 Values Out Of 1 Were Excluded Due To Quiescence Or 0 Fpdc. In addition, the FPDc in data set [2] (0.03165 µM) and in data set [2] (0.1 µM) was 1 Values Out Of 1 Were Excluded Due To Quiescence Or 0 Fpdc throughout. Moreover, the APDc in data set [6] (setting [10]) came to 60.87; in data set [6] (setting [11]) it was 62.7; in data set [6] (setting [12]), 58.7; in data set [6] (setting [9]) it was 92.05. The FPD measurement is given as 60.87 FPDc in data set [6] (setting [10]); 62.7 FPDc in data set [6] (setting [11]); 58.7 FPDc in data set [6] (setting [12]); 92.05 FPDc in data set [6] (setting [9]); 1 Values Out Of 1 Were Excluded Due To Quiescence Or 0 Fpdc in data set [2] (0.003169 µM); 1 Values Out Of 1 Were Excluded Due To Quiescence Or 0 Fpdc in data set [2] (0.01001 µM). Moreover, the FPD measurement in data set [2] (0.03165 µM) and in data set [2] (0.1 µM) was 1 Values Out Of 1 Were Excluded Due To Quiescence Or 0 Fpdc each time.
On to `CN(C)CCCN1c2ccccc2Sc2ccc(Cl)cc21` [CHLORPROMAZINE], for which the FPDc is 0.04224 in data set [1] (setting [13]); 0.04702 in data set [1] (setting [14]); 0.04411 in data set [1] (setting [15]); “More Than Half The Wells Had A Quiescence Event Or Fpdc Readings Of 0” in data set [1] (3 µM, concentration (um) 3 uM); 53.9 in data set [3] (0.09507 µM); 52.05 in data set [3] (0.3004 µM). For the same compound, the FPDc came to 50.49 in data set [3] (0.9494 µM) and 44.91 in data set [3] (3 µM). In addition, the FPD measurement entry in data set [1] (3 µM, concentration (um) 3 uM) was “More Than Half The Wells Had A Quiescence Event Or Fpdc Readings Of 0”; in data set [6] (setting [13]) it was 69.32 FPDc; in data set [6] (setting [14]) it was 63.65 FPDc; in data set [6] (setting [15]) it was 55.94 FPDc; in data set [6] (3 µM, concentration (um) 3 uM), 58.51 FPDc; in data set [3] (0.09507 µM) it was 53.9 FPDc. Besides, the FPD measurement in data set [3] (0.3004 µM) worked out at 52.05 FPDc; in data set [3] (0.9494 µM), 50.49 FPDc; in data set [3] (3 µM) it was 44.91 FPDc. Further, the APDc in data set [6] (setting [13]) is reported as 69.32; in data set [6] (setting [14]), 63.65; in data set [6] (setting [15]) it was 55.94; in data set [6] (3 µM, concentration (um) 3 uM), 58.51.
For `CC[C@H]1OC(=O)[C@H](C)[C@@H](O[C@H]2C[C@@](C)(OC)[C@@H](O)[C@H](C)O2)[C@H](C)[C@@H](O[C@@H]2O[C@H](C)C[C@H](N(C)C)[C@H]2O)[C@](C)(OC)C[C@@H](C)C(=O)[C@H](C)[C@@H](O)[C@]1(C)O` [CLARITHROMYCIN], the FPDc in data set [1] (setting [9]) was found to be 0.03502; in data set [1] (1 µM, concentration (um) 1 uM), 0.03611; in data set [1] (setting [16]) it was 0.04288; in data set [1] (setting [17]), 0.03271. Also, the APDc in data set [6] (setting [9]) is reported as 48.18; in data set [6] (1 µM, concentration (um) 1 uM), 53.12; in data set [6] (setting [16]), 61.24; in data set [6] (setting [17]), 79.49. In addition, the FPD measurement in data set [6] (setting [9]) is given as 48.18 FPDc; in data set [6] (1 µM, concentration (um) 1 uM), 53.12 FPDc; in data set [6] (setting [16]) it was 61.24 FPDc; in data set [6] (setting [17]), 79.49 FPDc.
Turning to `Cc1nc2n(c(=O)c1CCN1CCC(c3noc4cc(F)ccc34)CC1)CCCC2` [RISPERIDONE], the FPDc in data set [1] (setting [10]) is reported as 0.03911; in data set [1] (setting [11]), 0.03923; in data set [1] (setting [12]), 0.03847; in data set [1] (setting [9]) it was 0.03663; in data set [2] (0.003169 µM) it was 1 Values Out Of 1 Were Excluded Due To Quiescence Or 0 Fpdc; in data set [2] (0.01001 µM), 1 Values Out Of 1 Were Excluded Due To Quiescence Or 0 Fpdc. The FPDc in data set [2] (0.03165 µM) is 1 Values Out Of 1 Were Excluded Due To Quiescence Or 0 Fpdc; in data set [2] (0.1 µM), 1 Values Out Of 1 Were Excluded Due To Quiescence Or 0 Fpdc; in data set [5] (setting [10]), 54.79; in data set [5] (setting [11]), 49.58; in data set [5] (setting [12]), 47.1; in data set [5] (setting [9]), 61.9. For the same compound, the FPDc in data set [3] (0.003169 µM) was determined as 55.22; in data set [3] (0.01001 µM), 55.61; in data set [3] (0.03165 µM), 57.01; in data set [3] (0.1 µM), 65.06. Moreover, the FPD measurement is recorded as 1 Values Out Of 1 Were Excluded Due To Quiescence Or 0 Fpdc in data set [2] (0.003169 µM); 1 Values Out Of 1 Were Excluded Due To Quiescence Or 0 Fpdc in data set [2] (0.01001 µM); 1 Values Out Of 1 Were Excluded Due To Quiescence Or 0 Fpdc in data set [2] (0.03165 µM); 1 Values Out Of 1 Were Excluded Due To Quiescence Or 0 Fpdc in data set [2] (0.1 µM); 5 Values Out Of 5 Were Excluded Due To Quiescence Or 0 Apdc in data set [5] (setting [10]); 5 Values Out Of 5 Were Excluded Due To Quiescence Or 0 Apdc in data set [5] (setting [11]). Moreover, the FPD measurement is 5 Values Out Of 5 Were Excluded Due To Quiescence Or 0 Apdc in data set [5] (setting [12]); 5 Values Out Of 5 Were Excluded Due To Quiescence Or 0 Apdc in data set [5] (setting [9]); 55.22 FPDc in data set [3] (0.003169 µM); 55.61 FPDc in data set [3] (0.01001 µM); 57.01 FPDc in data set [3] (0.03165 µM); 65.06 FPDc in data set [3] (0.1 µM).
